Where two headings read alike, the source gives them in different places.
Experiments:
MC3T3-E1 cells = assay: Alkaline phosphatase (ALP) activity in MC3T3-E1 cells; format: cell-based; conditions: 1 μM compound, 3 days; for activity at 1 µM: Mus musculus, 72 h, MC3T3-E1 cell, read-out: ALP activity (1 μM, % of Control) MC3T3-E1 cell
Method: Differentiation and activity of osteoblasts were indirectly evaluated by measuring an ALP activity having a close relationship with osteogenesis.
Osteoblasts (Calvarial cells) prepared in Experimental Example 1 and MC3T3-E1 cells (available from RIKEN Cell Bank, Japan) were collected in α-MEM supplemented with 10% FBS, followed by cell counting. The cells were dispensed into 24-well cultureware at a density of 2×10^4 cells/well. After culturing of the cells for 24 hours, the culture media were discarded and replaced with fresh media in which test compounds were diluted to a concentration of 1 μM (1 mL/well). In addition, the vehicle control group containing 0.1% DMSO was also treated. […] When the experiment was terminated, the supernatant was removed and the cells were washed three times with cold phosphate buffer at 4°. 0.2% Triton X-100 was added to the washed cells which were then subjected to three cycles of freezing at −70° and thawing at room temperature for the complete lysis of cells. The cell extracts were pooled and centrifuged to collect the cell supernatant which was used for the measurement of ALP activity and proteins. The protein concentration was measured using a BCA assay kit (manufactured by Sigma-Aldrich). For the measurement of ALP activity, p-nitrophenylphosphate was added to the cell supernatant which was then incubated at 37° for 30 minutes, and the reaction was terminated with the addition of 50 μL of 0.2N sodium hydroxide. The standard curve was plotted at the absorbance of 405 nm using p-nitrophenol as a standard material and then the absorbance of test materials thus reacted was measured to determine the production amount of p-nitrophenol.
The ALP activity was calculated by dividing the amount of p-nitrophenol produced from each test material by the protein amount and the reaction time. Therefore, the unit of ALP activity was given in terms of p-nitrophenol/μg protein/min. The results are given in Tables 28-1 and 28-2 where the ALP activity unit of each test material was given in terms of % change through the comparison between the individual test materials and the vehicle control group.

[1] = system: Osteoblasts (Calvarial cells); assay: Cytotoxicity test (MTT); conditions: 1 μM compound, 72 hours, in comparison with vehicle control
[2] = system: formation of osteoclasts in co-culture of bone marrow cells and osteoblasts; assay: Osteoclastogenesis inhibition via co-culture system (TRAP staining); format: cell-based, mice; conditions: 1 μM compound, 7 days co-culture, TRAP-positive multinucleated osteoclasts vs vehicle control; for inhibition at 1 µM: Mus musculus, Osteoclast, 168 h
Summary of the method: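 Bone marrow cells from male ddY mice were co-cultured with osteoblasts for 7 days in α-MEM/10% FBS with 10^−8 M 1α,25-dihydroxyvitamin D3 and dexamethasone. Compound was present at 1 μM final and refreshed every 2–3 days. TRAP-positive cells with 6–7 nuclei were counted, with % inhibition relative to DMSO vehicle (n=4).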

[3] = system: Osteoblasts (Calvarial cells); assay: Alkaline phosphatase (ALP) activity in osteoblasts (Calvarial cells); format: cell-based, mice; conditions: 1 μM compound, 3 days; for activity at 1 µM: Mus musculus, 72 h, Calvarial cell, read-out: ALP activity (1 μM, % of Control) Calvarial cell
Summary of the method: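 Primary calvarial osteoblasts or MC3T3-E1 cells in α-MEM with 10% FBS were treated with 1 μM compound, against a 0.1% DMSO vehicle. Cell lysates were incubated with p-nitrophenylphosphate at 37° for 30 minutes and read at 405 nm. ALP activity was expressed as p-nitrophenol/μg protein/min and reported as % change versus vehicle.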

[4] = system: Osteoblasts (Calvarial cells); conditions: ICR, mouse, 72 h, 1 μM

Compound | inhibition at 1 µM [2] | activity at 1 µM [3] | Cell viability (%) Calvarial cell [4] | also measured
COc1ccc(Nc2nc(N(C)CC3OCCO3)ccc2[N+](=O)[O-])cc1 [Compound 18, 2-(4-methoxyphenylamino)-6-[(N-[1,3]-dioxolan-2-ylmethyl)methylamino]-3-nitropyridine] | – | – | – | ALP activity (1 μM, % of Control) MC3T3-E1 cell (MC3T3-E1 cells): 113 % of Control; Cell viability (%) Calvarial cell [1]: 91%
Cc1nc(-c2ccc(Nc3nc(NCc4cccnc4)ccc3[N+](=O)[O-])cc2)cs1 [Compound 138, 2-[4-(2-methylthiazol-4-yl)phenylamino]-6-[(3-pyridyl)methylamino]-3-nitropyridine] | 98% | 121% | 94% | –
CNc1ccc([N+](=O)[O-])c(Nc2cccc(C(C)=O)c2)n1 [Compound 96, 2-(3-acetylphenylamino)-6-(methylamino)-3-nitropyridine] | – | – | 90% | activity at 1 µM (MC3T3-E1 cells): 137%
CC(=O)c1cccc(Nc2nc(N3CCN=C3C)ccc2[N+](=O)[O-])c1 [Compound 100, 2-(3-acetylphenylamino)-6-[(2-methyl-4,5-dihydro)imidazol-1-yl]-3-nitropyridine] | – | – | – | ALP activity (1 μM, % of Control) MC3T3-E1 cell (MC3T3-E1 cells): 126 % of Control; Cell viability (%) Calvarial cell [1]: 91%
CNc1ccc([N+](=O)[O-])c(Nc2ccc(N3CCOCC3)cc2)n1 [Compound 108, 2-(4-morpholinophenylamino)-6-(methylamino)-3-nitropyridine] | – | – | 100% | activity at 1 µM (MC3T3-E1 cells): 111%
O=[N+]([O-])c1ccc(NCCCn2ccnc2)nc1Nc1ccc(N2CCOCC2)cc1 [Compound 119, 2-(4-morpholinophenylamino)-6-[(3-imidazol-1-yl)propylamino]-3-nitropyridine] | – | – | 107% | activity at 1 µM (MC3T3-E1 cells): 167%
NC1CCN(c2ccc([N+](=O)[O-])c(Nc3ccc(N4CCOCC4)cc3)n2)CC1 [Compound 121, 2-(4-morpholinophenylamino)-6-(4-aminopiperidino)-3-nitropyridine] | 89% | 127% | 100% | –
Cc1nc(-c2ccc(Nc3nc(N4CCC(O)CC4)ccc3[N+](=O)[O-])cc2)cs1 [Compound 135, 2-[4-(2-methylthiazol-4-yl)phenylamino]-6-(4-hydroxypiperidino)-3-nitropyridine] | 93% | 113% | 106% | –
CNc1ccc([N+](=O)[O-])c(Nc2ccc(-c3csc(C)n3)cc2)n1 [Compound 132, 2-[4-(2-methylthiazol-4-yl)phenylamino]-6-(methylamino)-3-nitropyridine] | 80% | 198% | 101% | –
COc1ccc(Nc2nc(NC(C)C)ccc2[N+](=O)[O-])cc1 [Compound 16, 2-(4-methoxyphenylamino)-6-(isopropylamino)-3-nitropyridine] | – | – | 100% | activity at 1 µM (MC3T3-E1 cells): 118%
Cc1nc(-c2ccc(Nc3nc(NCc4ccncc4)ccc3[N+](=O)[O-])cc2)cs1 [Compound 139, 2-[4-(2-methylthiazol-4-yl)phenylamino]-6-[(4-pyridyl)methylamino]-3-nitropyridine] | 99% | 122% | 95% | –
CC(C)CNc1ccc([N+](=O)[O-])c(Nc2ccc(N)cc2)n1 [Compound 59, 2-[4-(amino)phenylamino]-6-(isobutylamino)-3-nitropyridine] | 81% | 115% | 99% | –
COc1ccc(Nc2nc(N3CCN=C3C)ccc2[N+](=O)[O-])cc1 [Compound 20, 2-(4-methoxyphenylamino)-6-[(2-methyl-4,5-dihydro)imidazol-1-yl]-3-nitropyridine] | – | – | – | ALP activity (1 μM, % of Control) MC3T3-E1 cell (MC3T3-E1 cells): 124 % of Control
CC(=O)c1cccc(Nc2nc(N3CCNCC3)ccc2[N+](=O)[O-])c1 [Compound 106, 2-(3-acetylphenylamino)-6-(piperazin-1-yl)-3-nitropyridine] | 87% | 116% | 81% | –
CC(=O)c1cccc(Nc2nc(NC(C)C)ccc2[N+](=O)[O-])c1 [Compound 97, 2-(3-acetylphenylamino)-6-(isopropylamino)-3-nitropyridine] | 80% | 188% | 114% | –
Cc1ccc(Nc2nc(N3CCC(N)CC3)ccc2[N+](=O)[O-])cc1 [Compound 13, 2-(4-methylphenylamino)-6-(4-aminopiperidino)-3-nitropyridine] | 92% | 115% | 97% | –
CNc1ccc([N+](=O)[O-])c(Nc2ccc(N3CCCCC3)c(F)c2)n1 [Compound 223, 2-[(3-fluoro-4-piperidino)phenylamino]-6-(methylamino)-3-nitropyridine] | – | – | – | Osteoclastogenesis inhibition (%) 1 μM [2]: 82%; ALP activity (1 μM, % of Control) Calvarial cell [3]: 247 % of Control; Cell viability (%) Calvarial cell [1]: 100%
CC(C)(C)c1ccc(Nc2nc(N3CCC(N)CC3)ccc2[N+](=O)[O-])cc1 [Compound 43, 2-[4-(t-butyl)phenylamino]-6-(4-aminopiperidino)-3-nitropyridine] | 100% | 121% | 114% | –
O=[N+]([O-])c1ccc(N2CCNCC2)nc1Nc1ccc(N2CCOCC2)cc1 [Compound 120, 2-(4-morpholinophenylamino)-6-(piperazin-1-yl)-3-nitropyridine] | 63% | 115% | 94% | –
Cc1nc(-c2ccc(Nc3nc(N4CCOCC4)ccc3[N+](=O)[O-])cc2)cs1 [Compound 145, 2-[4-(2-methylthiazol-4-yl)phenylamino]-6-morpholino-3-nitropyridine] | 94% | 117% | 96% | –
CC(C)(C)Nc1ccc([N+](=O)[O-])c(Nc2ccc(N3CCOCC3)c(F)c2)n1 [Compound 199, 2-[(3-fluoro-4-morpholino)phenylamino]-6-(t-butylamino)-3-nitropyridine] | – | – | – | Osteoclastogenesis inhibition (%) 1 μM [2]: 67%; ALP activity (1 μM, % of Control) Calvarial cell [3]: 118 % of Control; Cell viability (%) Calvarial cell [1]: 118%
O=[N+]([O-])c1ccc(NCc2ccncc2)nc1Nc1ccc(N2CCCCC2)c(F)c1 [Compound 230, 2-[(3-fluoro-4-piperidino)phenylamino]-6-[(4-pyridyl)methylamino]-3-nitropyridine] | – | – | – | Osteoclastogenesis inhibition (%) 1 μM [2]: 93%; ALP activity (1 μM, % of Control) Calvarial cell [3]: 120 % of Control; Cell viability (%) Calvarial cell [1]: 101%
